{"source": "patent US11708562B2", "about": "“Differentiation of human embryonic stem cells” (Janssen Biotech, Inc., priority 2006, dated 2023)", "key": {"[1]": {"tested_on": "human embryonic stem cell line H1 at passage 55", "assay": "Definitive endoderm on human serum coated plates (real-time PCR)", "type": "cell-based", "protocol": "Cultures of the human embryonic stem cell line H1 at passage 55 were grown and differentiated on human serum (Sigma, # H1388, MO) coated plates. 0.5 ml of human serum was added to each well of 6 well tissue culture treated dish, incubated for 1 hr at room temperature, and aspirated before adding human embryonic stem cells. […] These findings parallel our findings for human embryonic stem cells cultured on […]™ or human fibronectin coated plates."}, "[2]": {"tested_on": "H9P46-P48 embryonic stem cells", "assay": "Definitive endoderm on […]: effect of GSK-3B inhibitor (FACS CXCR4, PCR)", "type": "cell-based, human", "conditions": "20 ng/ml of Wnt-3a or 100-1000 nM GSK-3B inhibitor", "protocol": "In order to confirm that the effect of Wnt-3a was through the Wnt pathway, a GSK-3 inhibitor was used to activate the downstream targets of Wnt, such as beta catenin. […] FIG. 29A depicts the expression of CXCR4 by FACS at day 5 in the absence of Wnt-3a or GSK-3B inhibitor, b)+20 ng/ml Wnt-3a, c)+1000 nM GSK-3B inhibitor IX, d)+500 nM GSK-3B inhibitor IX, e)+100 nM GSK-3B inhibitor IX, f)+10 nM GSK-3B inhibitor IX, g)+100 nM GSK-3B inhibitor IX for days 1-2, and h)+10 nM GSK-3B inhibitor IX for days 1-2."}, "[3]": {"tested_on": "H9P53 embryonic stem cells", "assay": "Definitive endoderm on […]: combination of Wnt-3a, GSK-3B inhibitor, BMP-4", "type": "cell-based, human", "text": "Results are expressed as fold increase over untreated cells. […] Results are expressed as fold increase over untreated cells."}, "[4]": {"tested_on": "human embryonic stem cell line H9", "assay": "Formation of pancreatic endocrine cells: γ-secretase inhibitor L-685,458 (PCR)", "type": "cell-based", "conditions": "L-685,458 at 10 μM for three days", "protocol": "After this time interval, the cells were then treated for six days with combinations of retinoic acid and FGF as outlined in Example 2, then the culture medium was removed and replaced with medium comprising DMEM/F12 with 2% FBS, containing the γ-secretase inhibitors L-685,458 at 10 μM for three days."}, "[5]": {"tested_on": "human embryonic stem cell line H9", "assay": "Formation of pancreatic endoderm: retinoic acid and bFGF after activin A (PCR, immunocytochemistry)", "type": "cell-based", "text": "Final data were expressed relative to a calibrator sample."}, "[6]": {"tested_on": "H7P44 and H9P46 embryonic stem cells", "assay": "Definitive endoderm on […]: role of Wnt ligands (FACS CXCR4, real-time PCR)", "type": "cell-based, human", "conditions": "H7 and H9; low serum+AA+/-Wnt ligands", "protocol": "In some of the cultures 20 ng/ml Wnt-3a (Catalog #1324-WN-002, R&D Systems, MN), 20 ng/ml Wnt-5a (Catalog #654-WN-010, R&D Systems, MN), 25 ng/ml Wnt-7a (Catalog #3008-WN-025, R&D Systems, MN), or 25 ng/ml Wnt-5b (Catalog #3006-WN-025, R&D Systems, MN) was added throughout the five day treatment. FIGS. 24A and 24B depicts phase contrast images of H9P46 definitive endoderm culture in the presence of high concentration of (a) AA or (b) AA+20 ng/ml Wnt-3a. FIGS. 25A, 25B, 25C and 25D depicts the expression of CXCR4 by FACS at day 5 for H7P44, and H9P46 lines cultured on […]™ (1:30 dilution) and exposed to the DE protocol+Wnt-3a (FIGS. 25B and 25D) and -Wnt-3a (FIGS. 25A and C)."}, "[7]": {"tested_on": "human embryonic stem cell line H9", "assay": "Derivation of hepatocytes from human embryonic stem cells (PCR of AFP, albumin)", "type": "cell-based", "conditions": "five days after 7 days activin A", "quoted_text": "After this time, the cells were harvested, and samples of mRNA were collected for analysis."}}}
{"molecule": "O=C1Nc2cc(Br)ccc2/C1=C1/Nc2ccccc2/C1=N\\O", "note": "[GSK-3B inhibitor IX, reference compound]", "values": [{"measurement": "expression of definitive endoderm markers compared to activin A only", "setting": "[1]", "value": "Robust expression"}, {"measurement": "number of CXCR4 positive cells (FACS)", "setting": "[2]", "value": "significantly increased"}, {"measurement": "definitive endoderm markers, combination versus each agent by itself", "setting": "[3]; Wnt-3A plus GSK inhibitor in the presence of activin A", "value": "do not lead to significant upregulation"}]}
{"molecule": "CC(C)C[C@H](NC(=O)[C@H](Cc1ccccc1)C[C@@H](O)[C@H](Cc1ccccc1)NC(=O)OC(C)(C)C)C(=O)N[C@@H](Cc1ccccc1)C(N)=O", "note": "[L-685,458]", "values": [{"measurement": "expression of Ngn3 relative to activin A alone or retinoic acid with FGFs", "setting": "[4]", "value": "approximately 50 fold"}]}
{"molecule": "CC1=C(/C=C/C(C)=C/C=C/C(C)=C/C(=O)O)C(C)(C)CCC1", "note": "[retinoic acid, all-trans retinoic acid]", "values": [{"measurement": "expression of GLUT-2 and PTF1a", "setting": "[5]; 1 μM retinoic acid and 50 ng/ml bFGF, absence of activin A", "value": "largest increase"}, {"measurement": "Pdx1 expression relative to activin A treatment alone for 5 days", "setting": "[5]; three days activin A, then 5 days retinoic acid and 50 ng/ml bFGF in the absence of activin A", "value": "approximately 3500 fold"}]}
{"molecule": "Wnt-7a: Wnt ligand, Catalog #3008-WN-025, R&D Systems (protein, UniProt O00755 32-349, looked up) Protein Wnt-7a: LGASIICNKIPGLAPRQRAICQSRPDAIIVIGEGSQMGLDECQFQFRNGRWNCSALGERTVFGKELKVGSREAAFTYAIIAAGVAHAITAACTQGNLSDCGCDKEKQGQYHRDEGWKWGGCSADIRYGIGFAKVFVDAREIKQNARTLMNLHNNEAGRKILEENMKLECKCHGVSGSCTTKTCWTTLPQFRELGYVLKDKYNEAVHVEPVRASRNKRPTFLKIKKPLSYRKPMDTDLVYIEKSPNYCEEDPVTGSVGTQGRACNKTAPQASGCDLMCCGRGYNTHQYARVWQCNCKFHWCCYVKCNTCSERTEMYTCK", "values": [{"measurement": "expression of definitive endoderm markers (real-time PCR)", "setting": "[6]", "value": "minimal impact"}]}
{"molecule": "BMP-4: Catalog #314-BP-010, R&D Systems (protein, UniProt P12644 293-408, looked up) Bone morphogenetic protein 4: SPKHHSQRARKKNKNCRRHSLYVDFSDVGWNDWIVAPPGYQAFYCHGDCPFPLADHLNSTNHAIVQTLVNSVNSSIPKACCVPTELSAISMLYLDEYDKVVLKNYQEMVVEGCGCR", "values": [{"measurement": "effect of addition of BMP-4 to the DE protocol", "setting": "[3]; 25 ng/ml BMP-4", "value": "induce formation of mesoderm marker BRY"}]}
{"molecule": "Wnt-5a: Wnt ligand, Catalog #654-WN-010, R&D Systems (protein, UniProt P22725 62-380, looked up) Protein Wnt-5a: IIGAQPLCSQLAGLSQGQKKLCHLYQDHMQYIGEGAKTGIKECQYQFRHRRWNCSTVDNTSVFGRVMQIGSRETAFTYAVSAAGVVNAMSRACREGELSTCGCSRAARPKDLPRDWLWGGCGDNIDYGYRFAKEFVDARERERIHAKGSYESARILMNLHNNEAGRRTVYNLADVACKCHGVSGSCSLKTCWLQLADFRKVGDALKEKYDSAAAMRLNSRGKLVQVNSRFNSPTTQDLVYIDPSPDYCVRNESTGSLGTQGRLCNKTSEGMDGCELMCCGRGYDQFKTVQTERCHCKFHWCCYVKCKKCTEIVDQFVCK", "values": [{"measurement": "expression of definitive endoderm markers (real-time PCR)", "setting": "[6]", "value": "minimal impact"}]}
{"molecule": "FGF-4: member of the fibroblast growth factor family (protein, UniProt P08620 31-206, looked up) Fibroblast growth factor 4: APTAPNGTLEAELERRWESLVALSLARLPVAAQPKEAAVQSGAGDYLLGIKRLRRLYCNVGIGFHLQALPDGRIGGAHADTRDSLLELSPVERGVVSIFGVASRFFVAMSSKGKLYGSPFFTDECTFKEILLPNNYNAYESYKYPGMFIALSKNGKTKKGNRVSPTMKVTHFLPRL", "values": [{"measurement": "expression of α-fetoprotein (AFP) and albumin", "setting": "[7]", "value": "further increased"}]}
{"molecule": "Wnt-5b: Wnt ligand, Catalog #3006-WN-025, R&D Systems (protein, UniProt P22726 18-359, looked up) Protein Wnt-5b: QLLTDANSWWSLALNPVQRPEMFIIGAQPVCSQLPGLSPGQRKLCQLYQEHMSYIGEGAKTGIRECQHQFRQRRWNCSTVDNTSVFGRVMQIGSRETAFTYAVSAAGVVNAISRACREGELSTCGCSRAARPKDLPRDWLWGGCGDNVEYGYRFAKEFVDAREREKNFAKGSEEQGRALMNLQNNEAGRRAVYKMADVACKCHGVSGSCSLKTCWLQLAEFRKVGDRLKEKYDSAAAMRITRQGKLELANSRFNQPTPEDLVYVDPSPDYCLRNETTGSLGTQGRLCNKTSEGMDGCELMCCGRGYDRFKSVQVERCHCRFHWCCFVRCKKCTEVVDQYVCK", "values": [{"measurement": "expression of definitive endoderm markers (real-time PCR)", "setting": "[6]", "value": "minimal impact"}]}
